In BigSolDB 2.1:

O=C1CCCC(=O)C1
solubility (mole fraction)
Conditions	288.15 K	293.15 K	298.15 K	303.15 K	308.15 K	313.15 K	318.15 K	323.15 K	328.15 K
in 2-butanone	0.0273	0.0355	0.0534	0.0727	0.0991	0.133	0.162	0.215	0.264
in THF	0.0855	0.109	0.135	0.164	0.208	0.246	0.307	0.347	0.392
in acetone	0.0488	0.0624	0.0834	0.108	0.132	0.173	0.211	0.245	0.282
in acetonitrile	0.0156	0.0198	0.0258	0.035	0.044	0.0538	0.0685	0.09	0.113
in chloroform	0.238	0.256	0.29	0.317	0.364	0.4	0.432	0.47	0.505
in ethyl acetate	0.0126	0.0155	0.0194	0.0244	0.0307	0.039	0.0515	0.0626	0.0819
in ethyl butyrate	0.0083	0.0103	0.0125	0.0148	0.0184	0.0221	0.0266	0.0322	0.0379
in ethyl formate	0.0109	0.0141	0.0182	0.0231	0.0287	0.0359	0.0492	0.0591	0.0694
in ethyl propionate	0.0118	0.0139	0.017	0.0203	0.0246	0.0294	0.0353	0.041	0.0495
in isopropyl acetate	0.0125	0.0146	0.017	0.0194	0.0228	0.0269	0.0302	0.0368	0.0424
in methyl acetate	0.0146	0.02	0.0247	0.0313	0.0406	0.0524	0.0714	0.0886	0.105
in n-butyl acetate	0.0119	0.0141	0.0168	0.0202	0.0237	0.0282	0.0347	0.0403	0.0457
in n-propyl acetate	0.0121	0.0147	0.0176	0.0214	0.0263	0.0324	0.0381	0.0457	0.0535
in toluene	0.00171	0.00244	0.00335	0.00445	0.00577	0.00803	0.0106	0.0136	0.0165
